Results from BigSolDB 2.1.

O=C1C=CC(=O)N1c1cc(F)c(Br)c(F)c1
Conditions | solubility (mole fraction)
in THF, 285 K | 0.0148
in THF, 288.45 K | 0.0162
in THF, 291.55 K | 0.0176
in THF, 294.25 K | 0.0185
in THF, 297.55 K | 0.02
in THF, 302.8 K | 0.0228
in THF, 306.65 K | 0.0249
in THF, 310.8 K | 0.0275
in THF, 315 K | 0.0303
in THF, 318.45 K | 0.0329
in THF, 321.45 K | 0.0355
in THF, 324.65 K | 0.0383
in THF, 327.65 K | 0.0409
in THF, 330.35 K | 0.0437
in THF, 333.65 K | 0.047
in THF, 336.25 K | 0.0497
in acetone, 287.65 K | 0.0071
in acetone, 291.85 K | 0.0081
in acetone, 295.55 K | 0.0092
in acetone, 298.35 K | 0.01
in acetone, 301.25 K | 0.0109
in acetone, 304.55 K | 0.012
in acetone, 307.6 K | 0.0131
in acetone, 309.45 K | 0.0139
in acetone, 311.95 K | 0.0152
in acetone, 313.95 K | 0.0159
in acetone, 316.55 K | 0.0174
in acetone, 319.55 K | 0.019
in acetone, 321.45 K | 0.0202
in acetone, 323.35 K | 0.0214
in acetone, 325.15 K | 0.0225
in acetonitrile, 291.95 K | 0.0028
in acetonitrile, 296.65 K | 0.0033
in acetonitrile, 299.25 K | 0.0037
in acetonitrile, 302.45 K | 0.004
in acetonitrile, 304.85 K | 0.0044
in acetonitrile, 307.15 K | 0.0049
in acetonitrile, 311.55 K | 0.0057
in acetonitrile, 316.95 K | 0.007
in acetonitrile, 320.15 K | 0.0078
in acetonitrile, 325.45 K | 0.0095
in acetonitrile, 328.55 K | 0.0107
in acetonitrile, 332.05 K | 0.0119
in acetonitrile, 338.65 K | 0.0146
in acetonitrile, 341.65 K | 0.0165
in acetonitrile, 347.25 K | 0.0198
in acetonitrile, 350.15 K | 0.0217
in chloroform, 289.25 K | 0.0055
in chloroform, 294.85 K | 0.0066
in chloroform, 296.65 K | 0.0069
in chloroform, 300.85 K | 0.0078
in chloroform, 302.75 K | 0.0082
in chloroform, 305.65 K | 0.0092
in chloroform, 307.45 K | 0.0096
in chloroform, 309.55 K | 0.0101
in chloroform, 311.65 K | 0.0108
in chloroform, 315.35 K | 0.012
in chloroform, 318.65 K | 0.0132
in chloroform, 322.15 K | 0.0146
in chloroform, 324.65 K | 0.0157
in chloroform, 326.45 K | 0.0166
in chloroform, 328.35 K | 0.0176
in chloroform, 330.65 K | 0.0188
in ethanol, 288.65 K | 0.0003
in ethanol, 293.59 K | 0.0003
in ethanol, 299.85 K | 0.0004
in ethanol, 305.72 K | 0.0006
in ethanol, 311.15 K | 0.0008
in ethanol, 318.15 K | 0.0011
in ethanol, 324.35 K | 0.0014
in ethanol, 327.85 K | 0.0016
in ethanol, 332.95 K | 0.002
in ethanol, 336.05 K | 0.0023
in ethanol, 339.65 K | 0.0027
in ethanol, 341.85 K | 0.003
in ethanol, 344.15 K | 0.0033
in ethanol, 346.15 K | 0.0036
in ethanol, 347.75 K | 0.0039
in pyridine, 285.55 K | 0.0116
in pyridine, 289.66 K | 0.0129
in pyridine, 293.95 K | 0.0144
in pyridine, 297.15 K | 0.0154
in pyridine, 300.85 K | 0.0169
in pyridine, 304.65 K | 0.0186
in pyridine, 310.05 K | 0.0214
in pyridine, 315.65 K | 0.0246
in pyridine, 318.65 K | 0.0265
in pyridine, 322.55 K | 0.0291
in pyridine, 328.45 K | 0.0341
in pyridine, 334.15 K | 0.0394
in pyridine, 337.95 K | 0.0432
in pyridine, 340.65 K | 0.0462
in pyridine, 344.85 K | 0.0514
in pyridine, 346.35 K | 0.0533
